Reference: article PMC6151956 (Slas Discovery, 2018)
Values joined by “and” are separate entries in the source; they are usually repeats but may differ in a detail not shown here. Equal entries are not always repeated. Where two headings read alike, the source gives them in different places. Each block holds one compound with its values, some of them ahead of it.

Legend:
[1] = biological target: T1, BTK in whole blood (Homo sapiens, UniProt Q06187); test: Stability of tirabrutinib-treated whole blood; format: cell-based
[2] = test system: TEC; conditions: cited from earlier work
[3] = test system: TEC; conditions: cited from earlier work; remark: listed apart in the source
[4] = test system: epidermal growth factor kinase (EGFR); conditions: cited from earlier work
[5] = test system: interleukin-2-inducible T-cell kinase (ITK); conditions: cited from earlier work
[6] = biological target: T1, BTK in whole blood; test: TR-FRET BTK occupancy assay in whole blood from healthy volunteers; format: cell-based
[7] = phase 1 clinical study, cited from earlier work
[8] = biological target: BTK in human PBMCs (Homo sapiens, UniProt Q06187); test: TR-FRET BTK occupancy assay in purified human PBMCs from healthy volunteers; format: cell-based
[9] = biological target: Recombinant full-length human BTK (rBTK) (Homo sapiens, UniProt Q06187); test: TR-FRET BTK occupancy assay on recombinant BTK; format: binding
[10] = biological target: BTK in Ramos B cells (Homo sapiens, UniProt Q06187); test: TR-FRET BTK occupancy assay in Ramos B cells; format: cell-based
[11] = biological target: BTK in BMMCs and PBMCs from patients with CLL (Homo sapiens, UniProt Q06187); format: cell-based; conditions: 110 nM tirabrutinib, 2 h ex vivo
Chain of BTK in BMMCs and PBMCs from patients with CLL (Q06187 whole entry): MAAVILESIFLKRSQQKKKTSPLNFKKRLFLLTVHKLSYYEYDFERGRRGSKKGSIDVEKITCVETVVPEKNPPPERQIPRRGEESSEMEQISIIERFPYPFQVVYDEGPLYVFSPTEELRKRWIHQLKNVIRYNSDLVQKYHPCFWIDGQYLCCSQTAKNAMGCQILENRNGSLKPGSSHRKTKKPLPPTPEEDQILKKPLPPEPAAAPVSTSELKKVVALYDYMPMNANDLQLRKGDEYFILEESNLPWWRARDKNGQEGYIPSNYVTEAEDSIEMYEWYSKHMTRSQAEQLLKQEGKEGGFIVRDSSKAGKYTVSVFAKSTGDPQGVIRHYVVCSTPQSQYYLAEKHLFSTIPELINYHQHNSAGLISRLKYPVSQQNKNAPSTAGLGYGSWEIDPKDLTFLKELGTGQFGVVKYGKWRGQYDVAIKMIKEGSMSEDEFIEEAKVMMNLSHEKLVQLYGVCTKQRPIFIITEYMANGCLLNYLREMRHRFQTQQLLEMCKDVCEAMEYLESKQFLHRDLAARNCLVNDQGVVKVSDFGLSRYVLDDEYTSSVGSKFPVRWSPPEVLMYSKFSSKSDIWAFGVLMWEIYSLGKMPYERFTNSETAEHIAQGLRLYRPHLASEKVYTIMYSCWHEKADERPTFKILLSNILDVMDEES

T1 sequence (Q06187 whole entry): as above
Chain of BTK in Ramos B cells (Q06187 whole entry): as above
Chain of Recombinant full-length human BTK (rBTK) (Q06187 whole entry): as above
Chain of BTK in human PBMCs (Q06187 whole entry): as above

SMILES: CC#CC(=O)N1CCC[C@H]1c1nc(-c2ccc(C(=O)Nc3ccccn3)cc2)c2c(N)nccn12 [acalabrutinib, reference compound]
- BTK occupancy on storage at room temperature [1]: effect of room temperature storage was also observed

SMILES: C=CC(=O)N1CCC[C@@H](n2nc(-c3ccc(Oc4ccccc4)cc3)c3c(N)ncnc32)C1 [ibrutinib]
- BTK selectivity versus TEC [2]: 156 fold
- Selectivity for BTK over TEC [3]: 5.6 fold
- BTK selectivity versus EGFR [4]: 11 fold
- BTK selectivity versus ITK [5]: 21 fold

- concentration at which full BTK occupancy was achieved [6]: 500 to 1000 nM
- BTK occupancy on storage at room temperature ([1]; whole blood pretreated 2 h, then stored at room temperature (24 h and more)): significantly higher target occupancy
- concentration at which full BTK occupancy was achieved [8]: 500 to 1000 nM
- concentration at which full BTK occupancy was achieved [9]: 100 nM
- concentration at which full BTK occupancy was achieved [10]: 500 to 1000 nM
- BTK occupancy [11]: ~100% and > 80%
SMILES: CC#CC(=O)N1CC[C@@H](n2c(=O)n(-c3ccc(Oc4ccccc4)cc3)c3c(N)ncnc32)C1 [tirabrutinib, Tirabrutinib]
- BTK occupancy on storage at 4 °C ([1]; whole blood pretreated 2 h, then stored at 4 °C for up to 48 h): maintained at the same level for up to 48 h
- response rate in CLL ([7]; CLL): 96%
- response rate in MCL ([7]; MCL): 92%
- response in nongerminal center DLBCL ([7]; nongerminal center DLBCL): 35%
